Measured values as given in ChEMBL document CHEMBL1909046, “DrugMatrix in vitro pharmacology data”.

Legend:
[1] = DRUGMATRIX: Glutamate, NMDA, Agonism radioligand binding (ligand: [3H] CGP-39653); type: cell membranes, Rattus norvegicus, Wistar, Cerebral cortex, Membrane; conditions: Not Active = under 50% inhibition at 10 µM
[2] = biological target: T1, Alpha-1A adrenergic receptor (Rattus norvegicus, UniProt P43140); experiment: DRUGMATRIX: Alpha-1A adrenergic receptor radioligand binding (ligand: prazosin); type: cell membranes, Wistar, Submaxillary gland, Membrane; conditions: Not Active = under 50% inhibition at 10 µM
T1 sequence (P43140 whole entry): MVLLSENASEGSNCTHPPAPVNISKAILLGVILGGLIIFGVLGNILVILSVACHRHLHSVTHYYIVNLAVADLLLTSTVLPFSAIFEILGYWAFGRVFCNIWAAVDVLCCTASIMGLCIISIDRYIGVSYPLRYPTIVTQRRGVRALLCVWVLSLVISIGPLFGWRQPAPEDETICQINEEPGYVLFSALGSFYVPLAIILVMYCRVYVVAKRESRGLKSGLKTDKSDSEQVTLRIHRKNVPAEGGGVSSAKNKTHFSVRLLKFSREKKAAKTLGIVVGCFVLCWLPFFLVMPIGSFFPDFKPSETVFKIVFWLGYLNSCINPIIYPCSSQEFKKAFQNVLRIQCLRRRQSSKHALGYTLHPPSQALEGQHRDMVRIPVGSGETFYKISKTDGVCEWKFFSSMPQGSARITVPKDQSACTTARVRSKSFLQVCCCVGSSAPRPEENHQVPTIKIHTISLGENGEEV

[3] = biological target: Voltage-gated inwardly rectifying potassium channel KCNH2 (Homo sapiens, UniProt Q12809); conditions: hek293; also: in other assays of this panel Not Active means under 50% inhibition at 10 µM
[4] = DRUGMATRIX: Interleukin IL-1 radioligand binding (ligand: [125I] interleukin 1beta); type: cell membranes, Membrane; conditions: nih3t3; Not Active = under 50% inhibition at 10 µM
[5] = biological target: Mu-type opioid receptor (Homo sapiens, UniProt P35372); experiment: DRUGMATRIX: Opiate mu (OP3, MOP) radioligand binding (ligand: [3H] Diprenorphine); type: cell membranes, CHO-K1, Membrane; conditions: cho-k1; Not Active = under 50% inhibition at 10 µM
[6] = biological target: T2, Cysteinyl leukotriene receptor 1 (Homo sapiens, UniProt Q9Y271); type: cell membranes, CHO-K1, Membrane; conditions: cho-k1; also: in other assays of this panel Not Active means under 50% inhibition at 10 µM
T2 sequence (Q9Y271 whole entry): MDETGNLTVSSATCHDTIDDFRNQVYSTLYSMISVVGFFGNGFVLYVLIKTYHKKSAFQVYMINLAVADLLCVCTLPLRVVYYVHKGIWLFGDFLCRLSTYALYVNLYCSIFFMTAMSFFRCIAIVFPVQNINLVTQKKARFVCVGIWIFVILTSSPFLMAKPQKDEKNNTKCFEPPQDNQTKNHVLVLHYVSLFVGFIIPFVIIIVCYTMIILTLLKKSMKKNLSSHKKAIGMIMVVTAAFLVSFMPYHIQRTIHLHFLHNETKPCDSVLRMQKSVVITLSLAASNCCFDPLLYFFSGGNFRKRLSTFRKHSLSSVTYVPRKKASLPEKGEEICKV

[7] = DRUGMATRIX: Potassium Channel [KATP] radioligand binding (ligand: [3H] Glyburide); type: cell membranes, Membrane; conditions: hit-t15; Not Active = under 50% inhibition at 10 µM
[8] = DRUGMATRIX: Purinergic P2X radioligand binding (ligand: [3H] alpha, beta-Methylene-ATP); type: cell membranes, Oryctolagus cuniculus, New Zealand albino, Urinary bladder, Membrane; conditions: Not Active = under 50% inhibition at 10 µM
[9] = DRUGMATRIX: beta-Lactamase enzyme inhibition (substrate: Nitrocefin); set-up: species or system Bacillus cereus; conditions: Not Active = under 50% inhibition at 10 µM
[10] = biological target: T3, Angiotensin-converting enzyme (Oryctolagus cuniculus, UniProt P12822); experiment: biochemical; type: tissue-based, Lung;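 also: enzymatic inhibition of angiotensin-converting enzyme measured with FAPGG as the substrate; in other assays of this panel Not Active means under 50% inhibition at 10 µM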
T3 sequence (P12822 whole entry): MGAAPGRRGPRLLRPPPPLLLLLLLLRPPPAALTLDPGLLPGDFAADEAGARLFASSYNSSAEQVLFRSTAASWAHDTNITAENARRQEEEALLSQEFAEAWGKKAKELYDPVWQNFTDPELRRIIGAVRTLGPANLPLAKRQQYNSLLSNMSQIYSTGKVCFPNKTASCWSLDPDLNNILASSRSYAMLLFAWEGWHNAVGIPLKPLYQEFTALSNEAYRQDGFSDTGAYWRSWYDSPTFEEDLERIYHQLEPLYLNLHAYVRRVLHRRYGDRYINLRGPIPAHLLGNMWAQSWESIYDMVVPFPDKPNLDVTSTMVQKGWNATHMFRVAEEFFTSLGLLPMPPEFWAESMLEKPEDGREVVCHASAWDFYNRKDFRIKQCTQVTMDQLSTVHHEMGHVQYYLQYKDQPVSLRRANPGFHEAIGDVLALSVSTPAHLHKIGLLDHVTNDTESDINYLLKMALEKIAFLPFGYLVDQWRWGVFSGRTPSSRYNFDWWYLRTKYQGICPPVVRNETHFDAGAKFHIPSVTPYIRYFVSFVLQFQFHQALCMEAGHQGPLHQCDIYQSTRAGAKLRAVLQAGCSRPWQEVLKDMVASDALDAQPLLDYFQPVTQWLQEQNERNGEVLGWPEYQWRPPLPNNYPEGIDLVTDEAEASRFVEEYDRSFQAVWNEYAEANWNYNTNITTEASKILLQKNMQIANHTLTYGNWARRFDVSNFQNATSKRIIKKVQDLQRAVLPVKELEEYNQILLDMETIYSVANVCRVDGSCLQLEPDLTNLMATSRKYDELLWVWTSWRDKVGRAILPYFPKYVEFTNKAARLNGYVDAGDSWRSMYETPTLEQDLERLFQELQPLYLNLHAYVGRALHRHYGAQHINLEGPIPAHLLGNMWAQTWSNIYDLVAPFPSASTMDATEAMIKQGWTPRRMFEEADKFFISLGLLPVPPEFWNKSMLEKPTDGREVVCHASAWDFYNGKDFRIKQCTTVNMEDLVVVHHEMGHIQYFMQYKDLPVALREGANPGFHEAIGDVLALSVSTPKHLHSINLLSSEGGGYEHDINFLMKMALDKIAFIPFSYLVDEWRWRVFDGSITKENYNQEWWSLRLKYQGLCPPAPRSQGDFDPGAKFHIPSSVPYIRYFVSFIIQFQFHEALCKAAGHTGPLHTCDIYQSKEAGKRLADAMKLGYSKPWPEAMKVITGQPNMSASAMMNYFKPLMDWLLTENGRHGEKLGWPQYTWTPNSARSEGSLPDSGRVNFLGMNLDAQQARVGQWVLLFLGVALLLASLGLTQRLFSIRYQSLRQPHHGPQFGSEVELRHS

[11] = DRUGMATRIX: Glutamate, NMDA, Phencyclidine radioligand binding (ligand: [3H] TCP); type: cell membranes, Rattus norvegicus, Wistar, Cerebral cortex, Membrane; conditions: Not Active = under 50% inhibition at 10 µM
[12] = biological target: Cytochrome P450 3A4 (Homo sapiens, UniProt P08684); conditions: bti-tn-5b1-4; also: in other assays of this panel Not Active means under 50% inhibition at 10 µM
[13] = biological target: Sodium-dependent dopamine transporter (Homo sapiens, UniProt Q01959); experiment: DRUGMATRIX: Dopamine Transporter radioligand binding (ligand: [125I] RTI-55); type: cell membranes, CHO-K1, Membrane; conditions: cho-k1; Not Active = under 50% inhibition at 10 µM
Chain of Sodium-dependent dopamine transporter (Q01959 whole entry): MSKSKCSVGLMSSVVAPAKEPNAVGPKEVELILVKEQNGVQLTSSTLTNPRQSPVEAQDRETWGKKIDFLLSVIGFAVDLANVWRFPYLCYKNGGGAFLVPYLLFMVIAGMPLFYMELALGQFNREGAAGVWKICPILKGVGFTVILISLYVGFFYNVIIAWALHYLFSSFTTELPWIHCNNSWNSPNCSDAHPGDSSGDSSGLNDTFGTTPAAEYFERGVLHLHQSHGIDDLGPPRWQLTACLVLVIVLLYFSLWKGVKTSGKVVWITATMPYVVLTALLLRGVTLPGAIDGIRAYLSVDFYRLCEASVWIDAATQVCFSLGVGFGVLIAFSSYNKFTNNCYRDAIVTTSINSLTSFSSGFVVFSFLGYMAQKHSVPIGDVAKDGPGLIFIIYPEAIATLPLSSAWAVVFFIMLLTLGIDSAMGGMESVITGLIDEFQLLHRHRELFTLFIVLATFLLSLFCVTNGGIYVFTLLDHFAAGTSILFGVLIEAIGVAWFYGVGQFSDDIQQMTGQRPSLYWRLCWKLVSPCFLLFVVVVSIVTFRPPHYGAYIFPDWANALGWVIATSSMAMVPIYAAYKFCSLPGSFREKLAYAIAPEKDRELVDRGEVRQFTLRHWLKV

Chain of Cytochrome P450 3A4 (P08684 whole entry): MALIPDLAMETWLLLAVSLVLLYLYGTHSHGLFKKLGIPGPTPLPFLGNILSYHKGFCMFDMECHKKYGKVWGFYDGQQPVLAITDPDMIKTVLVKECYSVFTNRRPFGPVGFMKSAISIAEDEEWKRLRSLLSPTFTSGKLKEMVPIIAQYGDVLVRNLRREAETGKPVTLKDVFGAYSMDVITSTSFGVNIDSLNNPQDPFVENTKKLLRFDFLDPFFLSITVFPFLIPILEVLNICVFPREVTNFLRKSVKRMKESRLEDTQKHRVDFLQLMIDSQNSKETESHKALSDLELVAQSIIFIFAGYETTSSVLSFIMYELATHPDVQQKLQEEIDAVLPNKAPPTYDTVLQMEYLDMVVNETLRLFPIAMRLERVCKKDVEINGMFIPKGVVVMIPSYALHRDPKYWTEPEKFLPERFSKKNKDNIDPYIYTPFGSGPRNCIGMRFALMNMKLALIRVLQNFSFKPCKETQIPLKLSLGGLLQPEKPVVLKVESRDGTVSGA
Chain of Mu-type opioid receptor (P35372 whole entry): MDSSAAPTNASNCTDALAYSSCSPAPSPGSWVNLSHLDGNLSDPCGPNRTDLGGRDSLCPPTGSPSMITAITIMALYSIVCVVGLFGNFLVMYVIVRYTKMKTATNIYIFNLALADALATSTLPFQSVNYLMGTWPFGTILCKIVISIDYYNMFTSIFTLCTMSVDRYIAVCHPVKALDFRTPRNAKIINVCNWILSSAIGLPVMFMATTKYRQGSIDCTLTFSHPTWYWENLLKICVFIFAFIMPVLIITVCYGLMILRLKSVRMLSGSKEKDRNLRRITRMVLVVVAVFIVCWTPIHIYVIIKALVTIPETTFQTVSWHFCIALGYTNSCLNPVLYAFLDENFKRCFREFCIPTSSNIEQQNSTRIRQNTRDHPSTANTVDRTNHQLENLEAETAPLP
Chain of Voltage-gated inwardly rectifying potassium channel KCNH2 (Q12809 whole entry): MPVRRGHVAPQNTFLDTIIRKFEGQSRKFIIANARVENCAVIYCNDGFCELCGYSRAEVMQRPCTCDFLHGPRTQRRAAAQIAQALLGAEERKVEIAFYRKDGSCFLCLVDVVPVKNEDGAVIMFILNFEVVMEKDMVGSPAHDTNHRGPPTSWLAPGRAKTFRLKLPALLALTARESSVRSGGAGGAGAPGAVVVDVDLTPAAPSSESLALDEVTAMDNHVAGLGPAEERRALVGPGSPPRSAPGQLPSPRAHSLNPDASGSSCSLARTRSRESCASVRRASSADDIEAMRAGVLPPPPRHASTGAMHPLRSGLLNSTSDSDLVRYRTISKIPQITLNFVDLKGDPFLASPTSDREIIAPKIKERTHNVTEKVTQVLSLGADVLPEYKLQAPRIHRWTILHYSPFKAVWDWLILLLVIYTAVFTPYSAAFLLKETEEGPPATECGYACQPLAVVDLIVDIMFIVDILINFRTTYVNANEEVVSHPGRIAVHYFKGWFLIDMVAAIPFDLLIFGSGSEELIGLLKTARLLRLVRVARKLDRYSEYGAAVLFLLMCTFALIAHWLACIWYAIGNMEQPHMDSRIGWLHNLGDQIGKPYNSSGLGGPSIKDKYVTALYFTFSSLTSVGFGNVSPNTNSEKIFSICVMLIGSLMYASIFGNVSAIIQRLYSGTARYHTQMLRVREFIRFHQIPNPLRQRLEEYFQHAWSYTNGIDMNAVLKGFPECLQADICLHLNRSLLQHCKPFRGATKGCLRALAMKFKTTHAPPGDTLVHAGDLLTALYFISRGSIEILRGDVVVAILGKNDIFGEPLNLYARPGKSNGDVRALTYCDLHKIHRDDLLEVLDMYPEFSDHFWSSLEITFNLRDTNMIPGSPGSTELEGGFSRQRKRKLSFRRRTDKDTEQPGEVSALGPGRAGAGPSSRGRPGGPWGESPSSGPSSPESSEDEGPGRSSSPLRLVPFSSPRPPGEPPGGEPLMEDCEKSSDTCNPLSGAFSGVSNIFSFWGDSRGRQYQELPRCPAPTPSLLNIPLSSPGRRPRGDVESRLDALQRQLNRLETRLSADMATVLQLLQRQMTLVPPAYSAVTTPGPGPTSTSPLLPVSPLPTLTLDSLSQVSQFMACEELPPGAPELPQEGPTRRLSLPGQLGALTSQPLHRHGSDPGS

CCOC(=O)c1ccc(N)cc1 [BENZOCAINE]
Not Active: IC50 [1] | Ki [1] | IC50 [2] | IC50 [3] | Ki [3] | IC50 [4] | Ki [4] | IC50 [5] | IC50 [6] | IC50 [7] | Ki [7] | IC50 [8] | Ki [8] | IC50 [9] | Ki [9] | IC50 [10] | IC50 [11] | Ki [11] | IC50 [12] | Ki [12] | IC50 [13]

CC=CC(=O)N(CC)c1ccccc1C
Not Active: IC50 [1] | Ki [1] | IC50 [2] | IC50 [3] | Ki [3] | IC50 [4] | Ki [4] | IC50 [5] | IC50 [6] | IC50 [7] | Ki [7] | IC50 [8] | Ki [8] | IC50 [9] | Ki [9] | IC50 [10] | IC50 [11] | Ki [11] | IC50 [12] | Ki [12] | IC50 [13]

CC(=O)O[C@]1(C(C)=O)CC[C@H]2[C@@H]3C=C(Cl)C4=CC(=O)CC[C@]4(C)[C@H]3CC[C@@]21C [CHLORMADINONE ACETATE]
Not Active: IC50 [1] | Ki [1] | IC50 [2] | IC50 [3] | Ki [3] | IC50 [4] | Ki [4] | IC50 [5] | IC50 [6] | IC50 [7] | Ki [7] | IC50 [8] | Ki [8] | IC50 [9] | Ki [9] | IC50 [10] | IC50 [11] | Ki [11] | IC50 [12] | Ki [12] | IC50 [13]

Cn1cnc([N+](=O)[O-])c1Sc1ncnc2nc[nH]c12 [AZATHIOPRINE]
Not Active: IC50 [1] | Ki [1] | IC50 [2] | IC50 [3] | Ki [3] | IC50 [4] | Ki [4] | IC50 [5] | IC50 [6] | IC50 [7] | Ki [7] | IC50 [8] | Ki [8] | IC50 [9] | Ki [9] | IC50 [10] | IC50 [11] | Ki [11] | IC50 [12] | Ki [12] | IC50 [13]

COC1=CC(=O)C[C@@H](C)[C@]12Oc1c(Cl)c(OC)cc(OC)c1C2=O [GRISEOFULVIN]
Not Active: IC50 [1] | Ki [1] | IC50 [2] | IC50 [3] | Ki [3] | IC50 [4] | Ki [4] | IC50 [5] | IC50 [6] | IC50 [7] | Ki [7] | IC50 [8] | Ki [8] | IC50 [9] | Ki [9] | IC50 [10] | IC50 [11] | Ki [11] | IC50 [12] | Ki [12] | IC50 [13]

CCCc1cc(=O)[nH]c(=S)[nH]1 [PROPYLTHIOURACIL]
Not Active: IC50 [1] | Ki [1] | IC50 [2] | IC50 [3] | Ki [3] | IC50 [4] | Ki [4] | IC50 [5] | IC50 [6] | IC50 [7] | Ki [7] | IC50 [8] | Ki [8] | IC50 [9] | Ki [9] | IC50 [10] | IC50 [11] | Ki [11] | IC50 [12] | Ki [12] | IC50 [13]

Nc1nc2c(ncn2COC(CO)CO)c(=O)[nH]1 [GANCICLOVIR]
Not Active: IC50 [1] | Ki [1] | IC50 [2] | IC50 [3] | Ki [3] | IC50 [4] | Ki [4] | IC50 [5] | IC50 [6] | IC50 [7] | Ki [7] | IC50 [8] | Ki [8] | IC50 [9] | Ki [9] | IC50 [10] | IC50 [11] | Ki [11] | IC50 [12] | Ki [12] | IC50 [13]
